The supplement of paper PMC11061612

Assays:
Capivasertib = compound: C1CN(CCC1(C(=O)N[C@@H](CCO)C2=CC=C(C=C2)Cl)N)C3=NC=NC4=C3C=CN4 [Capivasertib]; conditions: max 10 µM
Outline: (§1)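 Viability was measured with CellTiter-Glo 2.0 luminescence after 72 hours of dosing at a final DMSO of typically 0.2%, and scaled between blank-well and DMSO-well means. Beforehand, cancer cell lines sat 24 hours at 37°C and 5% CO2 in 1536-well plates in 7.5 μl DMEM/F12 or RPMI with 10% FBS. A non-linear mixed effects model fitted two-parameter logistic curves to the dose responses. The single-agent IC50 comes from these fits.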

AZD1775 = compound: C=CCn1c(=O)c2cnc(Nc3ccc(N4CCN(C)CC4)cc3)nc2n1-c1cccc(C(C)(C)O)n1 [AZD1775]; conditions: max 3 µM
Outline: as §1

Trametinib = compound: CC(=O)Nc1cccc(-n2c(=O)n(C3CC3)c(=O)c3c(Nc4ccc(I)cc4F)n(C)c(=O)c(C)c32)c1 [Trametinib]; conditions: max 1 µM
Outline: as §1

Palbociclib = compound: CC(=O)c1c(C)c2cnc(Nc3ccc(N4CCNCC4)cn3)nc2n(C2CCCC2)c1=O [Palbociclib]; conditions: max 10 µM
Outline: as §1

AZD1390 = compound: CC(C)n1c(=O)n(C)c2cnc3cc(F)c(-c4ccc(OCCCN5CCCCC5)nc4)cc3c21 [AZD1390]; conditions: max 0.3 µM
Outline: as §1

Venetoclax = compound: CC1(C)CCC(CN2CCN(c3ccc(C(=O)NS(=O)(=O)c4ccc(NCC5CCOCC5)c([N+](=O)[O-])c4)c(Oc4cnc5[nH]ccc5c4)c3)CC2)=C(c2ccc(Cl)cc2)C1 [Venetoclax]; conditions: max 1 µM
Outline: as §1

Dasatinib = compound: CC1=C(C(=CC=C1)Cl)NC(=O)C2=CN=C(S2)NC3=CC(=NC(=N3)C)N4CCN(CC4)CCO [Dasatinib]; conditions: max 2 µM
Outline: as §1

SG3199 = compound: CC1=CN2[C@@H](C1)C=NC3=CC(=C(C=C3C2=O)OC)OCCCCCOC4=C(C=C5C(=C4)N=C[C@@H]6CC(=CN6C5=O)C)OC [SG3199]; conditions: max 0.001 µM
Outline: as §1

AZD2811 = compound: CCN(CCO)CCCOc1ccc2c(Nc3cc(CC(=O)Nc4cccc(F)c4)[nH]n3)ncnc2c1 [AZD2811]; conditions: max 1 µM
Outline: as §1

SN-38 = compound: CCc1c2c(nc3ccc(O)cc13)-c1cc3c(c(=O)n1C2)COC(=O)[C@]3(O)CC [SN-38]; conditions: max 0.3 µM
Outline: as §1

AZD0156 = compound: CN(C)CCCOc1ccc(-c2ccc3ncc4c(c3c2)n(C2CCOCC2)c(=O)n4C)cn1 [AZD0156]; conditions: max 3 µM
Outline: as §1

AZD4320 = compound: CN(CC[C@H](CSC1=CC=CC=C1)NC2=C(C=C(C=C2)S(=O)(=O)NC(=O)C3=CC=C(C=C3)N4CCC(CC4)[C@H](C5=CC=CC=C5C6=CC=C(C=C6)Cl)O)S(=O)(=O)C(F)(F)F)CCO [AZD4320]; conditions: max 1 µM
Outline: as §1

Alisertib = compound: COc1cc(Nc2ncc3c(n2)-c2ccc(Cl)cc2C(c2c(F)cccc2OC)=NC3)ccc1C(=O)O [Alisertib]; conditions: max 10 µM
Outline: as §1

Gefitinib = compound: COc1cc2ncnc(Nc3ccc(F)c(Cl)c3)c2cc1OCCCN1CCOCC1 [Gefitinib]; conditions: max 10 µM
Outline: as §1

Prexasertib = compound: COc1cccc(OCCCN)c1-c1cc(Nc2cnc(C#N)cn2)n[nH]1 [Prexasertib]; conditions: max 1 µM
Outline: as §1

Doxorubicin = compound: COc1cccc2c1C(=O)c1c(O)c3c(c(O)c1C2=O)C[C@@](O)(C(=O)CO)C[C@@H]3O[C@H]1C[C@H](N)[C@H](O)[C@H](C)O1 [Doxorubicin]; conditions: max 1 µM
Outline: as §1

AZD5153 = compound: COc1nnc2ccc(N3CCC(c4ccc(OCCN5CCN(C)C(=O)[C@H]5C)cc4)CC3)nn12 [AZD5153]; conditions: max 1 µM
Outline: as §1

Lapatinib = compound: CS(=O)(=O)CCNCc1ccc(-c2ccc3ncnc(Nc4ccc(OCc5cccc(F)c5)c(Cl)c4)c3c2)o1 [Lapatinib]; conditions: max 10 µM
Outline: as §1

AZD8186 = compound: C[C@@H](Nc1cc(F)cc(F)c1)c1cc(C(=O)N(C)C)cc2c(=O)cc(N3CCOCC3)oc12 [AZD8186]; conditions: max 3 µM
Outline: as §1

Crizotinib = compound: C[C@@H](Oc1cc(-c2cnn(C3CCNCC3)c2)cnc1N)c1c(Cl)ccc(F)c1Cl [Crizotinib]; conditions: max 10 µM
Outline: as §1

Savolitinib = compound: C[C@@H](c1ccc2nccn2c1)n1nnc2ncc(-c3cnn(C)c3)nc21 [Savolitinib]; conditions: max 1 µM
Outline: as §1

AZD6738 = compound: C[C@@H]1COCCN1C2=NC(=NC(=C2)C3(CC3)[S@](=N)(=O)C)C4=C5C=CNC5=NC=C4 [AZD6738]; conditions: max 10 µM
Outline: as §1

AZD5991 = compound: Cc1c2c(nn1C)CSCc1cc(n(C)n1)CSc1cc(c3ccccc3c1)OCCCc1c(C(=O)O)n(C)c3c-2c(Cl)ccc13 [AZD5991]; conditions: max 1 µM
Outline: as §1

AZD7648 = compound: Cc1cc2ncnn2cc1Nc1ncc2c(n1)n(C1CCOCC1)c(=O)n2C [AZD7648]; conditions: max 10 µM
Outline: as §1

Taselisib = compound: Cc1nc(-c2cn3c(n2)-c2ccc(-c4cnn(C(C)(C)C(N)=O)c4)cc2OCC3)n(C(C)C)n1 [Taselisib]; conditions: max 10 µM
Outline: as §1

Selumetinib = compound: Cn1cnc2c(F)c(Nc3ccc(Br)cc3Cl)c(C(=O)NOCCO)cc21 [Selumetinib]; conditions: max 10 µM
Outline: as §1

MK-2206 = compound: NC1(c2ccc(-c3nc4ccn5c(=O)[nH]nc5c4cc3-c3ccccc3)cc2)CCC1 [MK-2206]; conditions: max 10 µM
Outline: as §1

Olaparib = compound: O=C(c1cc(Cc2n[nH]c(=O)c3ccccc23)ccc1F)N1CCN(C(=O)C2CC2)CC1 [Olaparib]; conditions: max 10 µM
Outline: as §1

Row | Cell Line | IC50, cell viability 72 h (Capivasertib) [µM] | IC50, cell viability 72 h (AZD1775) [µM] | IC50, cell viability 72 h (Trametinib) [µM] | IC50, cell viability 72 h (Palbociclib) [µM] | IC50, cell viability 72 h (AZD1390) [µM] | IC50, cell viability 72 h (Venetoclax) [µM] | IC50, cell viability 72 h (Dasatinib) [µM] | IC50, cell viability 72 h (SG3199) [µM] | IC50, cell viability 72 h (AZD2811) [µM] | IC50, cell viability 72 h (SN-38) [µM] | IC50, cell viability 72 h (AZD0156) [µM] | IC50, cell viability 72 h (AZD4320) [µM] | IC50, cell viability 72 h (Alisertib) [µM] | IC50, cell viability 72 h (Gefitinib) [µM] | IC50, cell viability 72 h (Prexasertib) [µM] | IC50, cell viability 72 h (Doxorubicin) [µM] | IC50, cell viability 72 h (AZD5153) [µM] | IC50, cell viability 72 h (Lapatinib) [µM] | IC50, cell viability 72 h (AZD8186) [µM] | IC50, cell viability 72 h (Crizotinib) [µM] | IC50, cell viability 72 h (Savolitinib) [µM] | IC50, cell viability 72 h (AZD6738) [µM] | IC50, cell viability 72 h (AZD5991) [µM] | IC50, cell viability 72 h (AZD7648) [µM] | IC50, cell viability 72 h (Taselisib) [µM] | IC50, cell viability 72 h (Selumetinib) [µM] | IC50, cell viability 72 h (MK-2206) [µM] | IC50, cell viability 72 h (Olaparib) [µM]
1 | SBC-5 (Small Cell Lung Carcinoma) | > 10 | 1.14 | > 1 | > 10 | > 0.3 | > 1 | > 2 | > 0.001 | > 1 | 0.0202 | > 3 | > 1 | 3.25 | > 10 | 0.0795 | > 1 | 0.507 | > 10 | > 3 | 7.27 | > 1 | 5.87 | > 1 | > 10 | 4.64 | > 10 | > 10 | > 10
2 | SCC90 (Head and Neck Carcinoma) | 2.3 | > 3 | 0.00716 | > 10 | > 0.3 | > 1 | > 2 | > 0.001 | > 1 | > 0.3 | > 3 | > 1 | 7.38 | 0.97 | 0.122 | > 1 | > 1 | 0.882 | > 3 | > 10 | > 1 | > 10 | 0.266 | > 10 | 1.9 | 0.497 | 8.22 | > 10
3 | SK-N-DZ (Neuroblastoma) | > 10 | 0.278 | > 1 | 5.33 | > 0.3 | > 1 | > 2 | > 0.001 | > 1 | 0.0247 | > 3 | 0.628 | 0.256 | > 10 | 0.0169 | 0.748 | 0.294 | 5.56 | > 3 | 1.86 | > 1 | 2.39 | > 1 | > 10 | > 10 | > 10 |  | > 10
4 | SNU-1 (Gastric Carcinoma) | > 10 | 1.35 | 0.757 | > 10 | > 0.3 | > 1 | > 2 | > 0.001 | > 1 | 0.0129 | > 3 | > 1 | > 10 | > 10 | 0.0971 | 0.237 | 0.265 | > 10 | > 3 | > 10 | > 1 | 5.01 | 0.938 | > 10 | 9.03 | > 10 |  | > 10
5 | SUP-HD1 (Hodgkin's Lymphoma) | 7.9 | 1.33 | > 1 | > 10 | > 0.3 | 0.0156 | > 2 | > 0.001 | 0.995 | 0.00249 | > 3 | 0.0126 | 5.4 | > 10 | 0.0155 | 0.0996 | 0.224 | > 10 | > 3 | 6.54 | > 1 | 4.04 | 0.516 | > 10 | 5.27 | > 10 |  | > 10
6 | TOV-21G (Ovarian Carcinoma) | 1.55 | 0.754 | > 1 | > 10 | > 0.3 | > 1 | 0.139 | > 0.001 | > 1 | 0.148 | > 3 | > 1 | 2.95 | > 10 | 0.299 | > 1 | 0.334 | > 10 | > 3 | 9.3 | > 1 | 3.65 | > 1 | > 10 | 6.23 | > 10 |  | > 10
